In PMC9636434, “Discovery of small molecule agonists of the Relaxin Family Peptide Receptor 2” (Communications Biology, 2022):
Several values for one entry are separate records, joined by “and”; a condition that tells them apart may be missing. Equal entries are not always repeated. Entries after “also recorded” stand apart in the source; their conditions may differ.

Legend:
mouse RXFP2 = molecular target: T1, mouse RXFP2 (Mus musculus, UniProt Q91ZZ5); assay: CRE-luciferase reporter assay in HEK293T-CRE-Luc cells transiently transfected with mouse Rxfp2; assay type: cell-based
T1 construct: FLAG (N); expressed in transfected cells; host or cells: HEK293T-CRE-Luc (transient)
Excerpt: Therefore, we examined the capacity of the identified human RXFP2 agonists to activate murine RXFP2. […] The observed difference between CRE-luciferase reporter assays with human and mouse RXFP2 might be due to a lower expression of the receptor in transiently transfected mouse RXFP2 cells compared to the stably transfected human RXFP2 cell line.
HEK293T-CRE-Luc cells express luciferase under the control of the cAMP response element (CRE), which allows for indirect measurement of intracellular cAMP accumulation. HEK293T-CRE-Luc cells were stably transfected with human RXFP2 (HEK-CRE-Luc-RXFP2) or transiently transfected as above with mouse Rxfp2 (HEK-CRE-Luc-Rxfp2). HEK-CRE-Luc-RXFP2 and HEK-CRE-Luc-Rxfp2 cells were seeded at 15,000 and 30,000 cells per well, respectively, in 96-well plates using serum-free DMEM medium and incubated overnight at 37 °C, 5% CO2. After 18 h, cells were treated with a titration of compound, a titration of INSL3, 5 μM forskolin or DMSO vehicle. After treatment, cells were incubated for 3 h at 37 °C, 5% CO2. […] Plates were incubated for 40 min at room temperature protected from light and the luciferase output was read on a CLARIOstar plate reader. […]
Results are expressed as mean ± SEM of 3 independent experim ents. […]

mouse RXFP1 = molecular target: T2, mouse RXFP1 (Mus musculus, UniProt Q6R6I7); assay: HTRF cAMP counter-screen in HEK293T cells expressing mouse RXFP1; assay type: cell-based; conditions: for % Eff (cAMP): mouse RXFP1, experiments (1)-(3)
T2 construct: FLAG (N); expressed in transfected cells
T2 sequence (Q6R6I7 1-758): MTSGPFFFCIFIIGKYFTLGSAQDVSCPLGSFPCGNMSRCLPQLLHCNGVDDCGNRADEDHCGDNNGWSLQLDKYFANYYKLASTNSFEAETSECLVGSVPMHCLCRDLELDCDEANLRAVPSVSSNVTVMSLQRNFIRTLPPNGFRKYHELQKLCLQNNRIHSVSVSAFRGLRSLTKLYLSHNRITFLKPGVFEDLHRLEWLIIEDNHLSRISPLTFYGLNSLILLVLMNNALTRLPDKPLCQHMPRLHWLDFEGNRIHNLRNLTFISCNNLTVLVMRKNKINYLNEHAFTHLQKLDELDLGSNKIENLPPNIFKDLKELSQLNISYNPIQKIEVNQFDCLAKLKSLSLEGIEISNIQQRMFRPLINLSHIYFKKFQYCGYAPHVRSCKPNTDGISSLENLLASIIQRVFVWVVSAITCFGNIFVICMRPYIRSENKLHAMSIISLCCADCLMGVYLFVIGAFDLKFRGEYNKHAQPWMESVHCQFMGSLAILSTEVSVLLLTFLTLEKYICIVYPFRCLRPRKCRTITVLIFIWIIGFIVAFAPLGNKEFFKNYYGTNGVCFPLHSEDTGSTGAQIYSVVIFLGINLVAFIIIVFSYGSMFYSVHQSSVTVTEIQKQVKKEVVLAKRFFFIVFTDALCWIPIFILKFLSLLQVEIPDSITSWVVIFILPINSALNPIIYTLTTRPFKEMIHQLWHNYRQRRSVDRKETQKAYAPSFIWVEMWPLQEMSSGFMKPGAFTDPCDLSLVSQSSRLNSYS
Procedure: The HTRF Gs dynamic cAMP assay kit (CisBio, Bedford, MA) was used to measure intracellular cAMP accumulation in HEK293T cells (ATCC, Manassas, VA)[56]. […] The cell stock was verified mycoplasma free and authenticated by ATCC. Transient transfection was accomplished by treating cells in a 6-well plate with a mixture of 2 μg plasmid and 6 μL Lipofectamine 2000 (Invitrogen, Waltham, MA) per manufacturer’s protocol and incubating overnight. For cAMP measurement in 96-well format, HEK293T cells stably transfected with human RXFP2 (HEK-RXFP2), human RXFP1 (HEK-RXFP1), mouse Rxfp1 (HEK-Rxfp1) or transiently transfected with human RXFP1-RXFP2 chimeric receptors were seeded between 7500 and 30,000 cells per well, depending on cell line responsiveness, in serum-free DMEM medium and incubated overnight at 37 °C, 5% CO2. After 18 h, cells were treated with a titration of compound, 2 μM forskolin, or DMSO vehicle. Control wells were also treated with a titration of INSL3 (Phoenix Pharmaceuticals, Burlingame, CA) or human recombinant relaxin 2 (Peprotech, Cranbury, NJ). For the RXFP2 antagonist experiment, cells were co-treated with 0.28 μM compound or 30 nM INSL3 and a titration of the INSL3 B dimer antagonist[38],[39]. For the INSL3 allosteric modulation experiment, cells were co-treated with 0.025, 0.0025, or 0.00025 μM of compound and a titration of INSL3. Cells were incubated for 1 h at 37 °C, 5% CO2, and then kit cAMP-d2 and anti-cAMP antibody were added per manufacturer protocol. Plates were incubated for 1 h at room temperature and the signal was read on a CLARIOstar plate reader (BMG Labtech, Ortenberg, Germany) at 665 and 620 nm emission wavelengths. […]
receptors. HTRF cAMP counter-screen of RXFP2 agonists in HEK293T cells expressing a human RXFP1 and b mouse RXFP1. Relaxin 2 was used as positive control for RXFP1 receptor activation. Results are expressed as mean ± SEM of 3

T1 sequence (Q91ZZ5 whole entry): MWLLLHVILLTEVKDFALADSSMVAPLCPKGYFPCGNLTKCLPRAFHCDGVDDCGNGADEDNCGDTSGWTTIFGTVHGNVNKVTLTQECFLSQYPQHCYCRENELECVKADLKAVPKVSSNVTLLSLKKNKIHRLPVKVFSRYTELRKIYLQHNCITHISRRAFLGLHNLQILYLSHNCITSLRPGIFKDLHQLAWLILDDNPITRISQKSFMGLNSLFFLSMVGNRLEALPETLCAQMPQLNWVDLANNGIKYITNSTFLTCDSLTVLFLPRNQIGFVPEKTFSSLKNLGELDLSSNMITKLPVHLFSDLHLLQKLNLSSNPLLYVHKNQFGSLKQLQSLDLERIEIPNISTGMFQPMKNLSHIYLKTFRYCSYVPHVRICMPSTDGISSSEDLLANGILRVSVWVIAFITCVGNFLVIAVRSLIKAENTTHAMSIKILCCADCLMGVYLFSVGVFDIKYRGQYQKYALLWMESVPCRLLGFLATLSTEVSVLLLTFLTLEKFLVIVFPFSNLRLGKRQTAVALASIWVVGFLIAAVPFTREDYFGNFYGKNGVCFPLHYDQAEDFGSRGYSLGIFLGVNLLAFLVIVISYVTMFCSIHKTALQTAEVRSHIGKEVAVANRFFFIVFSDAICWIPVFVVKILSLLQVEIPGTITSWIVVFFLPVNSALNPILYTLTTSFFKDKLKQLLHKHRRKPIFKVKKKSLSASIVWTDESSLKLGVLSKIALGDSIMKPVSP

O=C1Nc2ccc(-c3cc(C(F)(F)F)cc(C(F)(F)F)c3)cc2C(=O)N2CCN(C(=O)COc3ccc(OC(F)(F)F)cc3I)C[C@@H]12 [compound 6641]
activation at 0.0251 µM (mouse RXFP2; mouse RXFP2, Log [M] -7.60, experiments (1)-(3), read-out: % Eff (CRE-luciferase)): 28.9% | agonism of mouse RXFP2 in CRE-luciferase reporter assay (mouse RXFP2; transiently transfected cells): activate the mouse RXFP2 receptor; also recorded: full agonist | activation of mouse RXFP1 receptor (mouse RXFP1; HTRF cAMP): do not activate | % Eff (cAMP) (mouse RXFP1; Log [M] -4.60): -2.207% and -2.077% and -4.472% | % Eff (cAMP) (mouse RXFP1; Log [M] -5.60): -1.251% and -0.3652% and -2.403% | % Eff (cAMP) (mouse RXFP1; Log [M] -6.60): -1.454% and 0.6194% and -2.041% | % Eff (cAMP) (mouse RXFP1; Log [M] -7.60): -0.3802% and -0.7758% and -2.5668%
